Measurements published in publication PMC11286144 (Archives of biochemistry and biophysics, 2024).
“And” between values parts separate entries of the source, which are not always exact repeats. Identical values can stand only once.

Legend:
Assay in all cases: BFC debenzylase activity assay
CYP3A4 (WT) = CYP3A4 (WT) (Homo sapiens, UniProt P08684)
K257A CYP3A4 = K257A CYP3A4 (Homo sapiens, UniProt P08684, K257A)
K266A CYP3A4 = K266A CYP3A4 (Homo sapiens, UniProt P08684, K266A)
Chain of K266A CYP3A4 (P08684 whole entry K266A): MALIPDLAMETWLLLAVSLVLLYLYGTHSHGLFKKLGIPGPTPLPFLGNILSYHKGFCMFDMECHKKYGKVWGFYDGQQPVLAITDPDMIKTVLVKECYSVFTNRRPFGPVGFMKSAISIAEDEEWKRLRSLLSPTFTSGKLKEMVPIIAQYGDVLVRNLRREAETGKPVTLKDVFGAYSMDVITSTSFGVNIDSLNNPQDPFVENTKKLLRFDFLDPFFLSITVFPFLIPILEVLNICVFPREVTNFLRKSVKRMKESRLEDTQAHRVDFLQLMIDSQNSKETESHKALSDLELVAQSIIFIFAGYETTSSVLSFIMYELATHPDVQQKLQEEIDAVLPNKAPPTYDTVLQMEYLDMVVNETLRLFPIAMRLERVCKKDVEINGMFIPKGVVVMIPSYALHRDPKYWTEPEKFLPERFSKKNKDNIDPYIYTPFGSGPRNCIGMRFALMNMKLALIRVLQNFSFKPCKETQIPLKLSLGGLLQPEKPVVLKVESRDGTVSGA

Chain of CYP3A4 (WT) (P08684 whole entry): as the sequence (P08684 whole entry K266A) above, with A266K counted along it
Chain of K257A CYP3A4 (P08684 whole entry K257A): as the sequence (P08684 whole entry K266A) above, with K257A, A266K counted along it

Structure (SMILES): O=c1cc(C(F)(F)F)c2ccc(OCc3ccccc3)cc2o1 [BFC]
- nH (Hill coefficient) (CYP3A4 (WT)): 1.8 and 1.8 ± 0.1
- nH (Hill coefficient) (K257A CYP3A4; K257A CYP3A4): 1.0
- higher Vmax than wild type (K257A CYP3A4; K257A CYP3A4 vs WT): 28%
- nH (Hill coefficient) (K266A CYP3A4; K266A CYP3A4): 1.9 and 1.9 ± 0.1
- higher Vmax than wild type (K266A CYP3A4; K266A CYP3A4 vs WT): 44%
